Data on three compounds can be found in ChEMBL document CHEMBL4706554 (Eur J Med Chem, 2020).

In general, pIC50 refers to the IC50 on a negative log10 scale, so that one unit is a factor of ten. The low end stands for a large IC50, the high end for a small IC50.

What all share (type): cell-based
The target of experiment [1] is T1, Casein kinase II subunit alpha (Homo sapiens, UniProt P68400). Kind of experiment: Displacement of fluorescent tracer from full-length human C-terminal NanoLuc-tagged CK2alpha expressed in HEK293T cells measured after 2 hrs by NanoBRET assay. Background: BRET reads energy transfer from a luciferase to a nearby fluorophore.
T1 sequence (P68400 whole entry): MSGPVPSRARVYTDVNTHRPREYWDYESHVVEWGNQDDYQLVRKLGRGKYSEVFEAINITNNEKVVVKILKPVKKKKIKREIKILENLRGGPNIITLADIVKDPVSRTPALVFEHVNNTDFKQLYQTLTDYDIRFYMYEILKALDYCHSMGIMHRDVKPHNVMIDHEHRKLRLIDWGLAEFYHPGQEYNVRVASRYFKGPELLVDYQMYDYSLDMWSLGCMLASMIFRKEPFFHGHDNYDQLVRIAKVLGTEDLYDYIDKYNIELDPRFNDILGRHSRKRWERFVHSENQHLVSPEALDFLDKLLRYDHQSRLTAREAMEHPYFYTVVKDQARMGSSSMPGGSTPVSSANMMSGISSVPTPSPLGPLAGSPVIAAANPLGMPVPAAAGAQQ
For experiment [2], the target named is T2, Casein kinase II subunit alpha' (Homo sapiens, UniProt P19784). The experiment can be described thus: Displacement of fluorescent tracer from full-length human C-terminal NanoLuc-tagged CK2alpha' expressed in HEK293T cells measured after 2 hrs by NanoBRET assay.
T2 sequence (P19784 whole entry): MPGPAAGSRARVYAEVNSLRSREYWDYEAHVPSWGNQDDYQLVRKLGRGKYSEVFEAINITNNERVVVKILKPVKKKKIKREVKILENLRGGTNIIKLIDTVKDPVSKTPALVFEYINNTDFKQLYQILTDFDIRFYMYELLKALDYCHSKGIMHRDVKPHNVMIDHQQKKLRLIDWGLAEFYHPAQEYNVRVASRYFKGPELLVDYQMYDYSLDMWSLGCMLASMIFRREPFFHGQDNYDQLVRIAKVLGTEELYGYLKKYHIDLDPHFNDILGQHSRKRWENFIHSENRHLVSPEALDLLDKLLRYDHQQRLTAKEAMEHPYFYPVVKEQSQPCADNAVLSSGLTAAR
In experiment [3] the target is T1, Casein kinase II subunit alpha. The experiment can be described thus: Displacement of fluorescent tracer from full-length human C-terminal NanoLuc-tagged CK2alpha expressed in HEK293T permeabilized cells measured after 2 hrs by NanoBRET assay.
Experiment [4] deals with T2, Casein kinase II subunit alpha'. The experiment can be described thus: Displacement of fluorescent tracer from full-length human C-terminal NanoLuc-tagged CK2alpha' expressed in HEK293T permeabilized cells measured after 2 hrs by NanoBRET assay.

Structures are written as SMILES. pIC50: −log10 of the molar value.

For `COC(=O)c1ccc(-c2cnn3ccc(N(CCOCCO)C(=O)OC(C)(C)C)nc23)cc1O`, the pIC50 is less than 4.30 in experiment [1], less than 4.30 in experiment [2], 5.12 in experiment [3] and less than 4.30 in experiment [4].

Consider `COC(=O)c1ccc2cc1OCCOCCNc1ccn3ncc-2c3n1`, for which the pIC50 is less than 4.30 in experiment [1], less than 4.30 in experiment [2], 4.88 in experiment [3] and less than 4.30 in experiment [4].

Compound `CC(C)(C)OC(=O)N1CCOCCOc2cc(ccc2C(=O)O)-c2cnn3ccc1nc23` showed a pIC50 in experiment [4] of 6.11.
